In BindingDB's records for PubMed 9103528 (Pharmacia & Upjohn, 1997):

Tests used:
[1] = target: 5-hydroxytryptamine receptor 2A (Rattus norvegicus, UniProt P14842)
[2] = target: T1, 5-hydroxytryptamine receptor 1A (Rattus norvegicus, UniProt P19327)
T1 sequence (P19327 whole entry): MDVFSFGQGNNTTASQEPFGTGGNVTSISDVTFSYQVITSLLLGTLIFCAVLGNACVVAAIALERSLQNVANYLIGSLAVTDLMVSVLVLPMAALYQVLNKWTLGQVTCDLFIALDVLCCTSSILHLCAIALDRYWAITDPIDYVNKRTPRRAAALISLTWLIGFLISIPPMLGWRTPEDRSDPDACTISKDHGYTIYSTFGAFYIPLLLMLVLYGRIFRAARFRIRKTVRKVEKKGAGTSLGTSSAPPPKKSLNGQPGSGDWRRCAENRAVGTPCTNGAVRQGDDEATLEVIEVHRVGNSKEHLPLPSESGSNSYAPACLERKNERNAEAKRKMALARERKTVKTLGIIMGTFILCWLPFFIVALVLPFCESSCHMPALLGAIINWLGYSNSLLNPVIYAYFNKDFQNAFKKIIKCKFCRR

D(2) dopamine receptor = D(2) dopamine receptor (Rattus norvegicus, UniProt P61169)
Sequence of D(2) dopamine receptor (P61169 whole entry): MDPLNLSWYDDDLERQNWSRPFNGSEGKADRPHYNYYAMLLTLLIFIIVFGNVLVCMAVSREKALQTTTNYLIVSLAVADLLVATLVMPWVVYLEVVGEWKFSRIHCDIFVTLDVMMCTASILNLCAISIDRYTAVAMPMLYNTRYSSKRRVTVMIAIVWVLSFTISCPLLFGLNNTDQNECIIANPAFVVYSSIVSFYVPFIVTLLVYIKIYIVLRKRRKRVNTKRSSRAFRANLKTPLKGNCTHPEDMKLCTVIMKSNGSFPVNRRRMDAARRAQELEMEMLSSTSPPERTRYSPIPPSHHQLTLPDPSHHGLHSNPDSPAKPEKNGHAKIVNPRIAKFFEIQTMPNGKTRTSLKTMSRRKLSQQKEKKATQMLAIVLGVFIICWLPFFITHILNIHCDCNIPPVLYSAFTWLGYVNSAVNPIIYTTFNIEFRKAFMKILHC

[3] = target: T2, Alpha-1A adrenergic receptor (Rattus norvegicus, UniProt P43140)
T2 sequence (P43140 whole entry): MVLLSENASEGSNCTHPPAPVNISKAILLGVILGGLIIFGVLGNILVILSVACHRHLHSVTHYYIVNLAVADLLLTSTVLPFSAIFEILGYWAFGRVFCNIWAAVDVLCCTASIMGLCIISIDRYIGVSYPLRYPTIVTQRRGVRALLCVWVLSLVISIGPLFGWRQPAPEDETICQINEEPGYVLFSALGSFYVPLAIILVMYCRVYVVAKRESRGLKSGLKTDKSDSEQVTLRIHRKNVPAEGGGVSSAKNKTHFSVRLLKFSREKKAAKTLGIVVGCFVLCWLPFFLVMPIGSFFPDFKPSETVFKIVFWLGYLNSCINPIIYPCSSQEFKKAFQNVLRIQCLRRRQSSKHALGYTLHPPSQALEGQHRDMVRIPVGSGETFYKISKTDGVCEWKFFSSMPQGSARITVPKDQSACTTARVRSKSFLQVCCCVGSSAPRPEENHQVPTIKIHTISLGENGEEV

[4] = target: T3, Alpha-2C adrenergic receptor (Rattus norvegicus, UniProt P22086)
T3 sequence (P22086 whole entry): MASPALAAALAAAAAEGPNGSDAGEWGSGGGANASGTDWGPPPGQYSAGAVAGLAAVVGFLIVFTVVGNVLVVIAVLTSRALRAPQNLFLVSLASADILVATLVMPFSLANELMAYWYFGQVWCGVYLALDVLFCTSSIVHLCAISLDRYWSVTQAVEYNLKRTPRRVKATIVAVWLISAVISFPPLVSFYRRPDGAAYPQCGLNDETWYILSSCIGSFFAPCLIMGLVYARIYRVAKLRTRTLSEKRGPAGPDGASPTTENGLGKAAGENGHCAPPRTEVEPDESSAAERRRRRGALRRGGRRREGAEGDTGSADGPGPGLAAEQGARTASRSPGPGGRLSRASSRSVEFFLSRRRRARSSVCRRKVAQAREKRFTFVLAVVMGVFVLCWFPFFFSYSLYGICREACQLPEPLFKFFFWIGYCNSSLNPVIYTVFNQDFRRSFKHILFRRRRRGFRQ

[5] = target: T4, Muscarinic acetylcholine receptor M2 (Rattus norvegicus, UniProt P10980)
T4 sequence (P10980 whole entry): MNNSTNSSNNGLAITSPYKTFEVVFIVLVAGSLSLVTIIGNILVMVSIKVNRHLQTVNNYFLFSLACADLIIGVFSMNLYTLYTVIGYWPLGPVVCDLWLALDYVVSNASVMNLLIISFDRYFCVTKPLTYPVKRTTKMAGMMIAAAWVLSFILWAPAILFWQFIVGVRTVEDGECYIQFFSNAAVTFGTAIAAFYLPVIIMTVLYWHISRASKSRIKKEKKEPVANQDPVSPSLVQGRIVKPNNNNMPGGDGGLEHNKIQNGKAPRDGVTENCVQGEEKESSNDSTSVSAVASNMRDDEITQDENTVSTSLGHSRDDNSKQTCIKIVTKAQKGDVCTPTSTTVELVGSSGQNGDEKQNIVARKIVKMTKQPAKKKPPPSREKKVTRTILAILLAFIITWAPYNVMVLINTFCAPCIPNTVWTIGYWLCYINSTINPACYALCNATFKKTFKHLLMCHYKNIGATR

Sequence of 5-hydroxytryptamine receptor 2A (P14842 whole entry): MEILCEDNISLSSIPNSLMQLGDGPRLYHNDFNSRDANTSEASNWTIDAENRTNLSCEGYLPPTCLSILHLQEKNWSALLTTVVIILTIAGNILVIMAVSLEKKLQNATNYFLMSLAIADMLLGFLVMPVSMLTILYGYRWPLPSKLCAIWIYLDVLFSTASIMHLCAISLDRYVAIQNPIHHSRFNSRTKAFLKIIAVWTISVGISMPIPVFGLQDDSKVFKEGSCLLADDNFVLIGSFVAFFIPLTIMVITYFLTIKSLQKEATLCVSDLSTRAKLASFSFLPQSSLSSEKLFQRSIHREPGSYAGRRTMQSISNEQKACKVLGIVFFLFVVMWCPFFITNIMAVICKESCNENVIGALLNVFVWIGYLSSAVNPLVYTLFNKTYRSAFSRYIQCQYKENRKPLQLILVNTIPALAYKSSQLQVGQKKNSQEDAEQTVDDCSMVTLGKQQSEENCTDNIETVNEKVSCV

Fc1ccc(N2CCN(CCC3OCCc4ccccc43)CC2)cc1 (stereo unspecified) [CAS_170856-41-4]
Ki [1]: 0.0058 µM
Ki [2]: 0.134 µM
Ki (D(2) dopamine receptor): 0.199 µM
Ki [3]: 0.038 µM
Ki [4]: 0.181 µM
Ki [5]: 0.678 µM
